Data reported in ChEMBL document CHEMBL6127048, “Water-soluble and predictable-release triptolide prodrugs block bleomycin-induced pulmonary fibrosis in mice” (Eur J Med Chem, 2024).
In brackets after ≈: the same amount, converted by molar mass. Blank lines part the entries; values can stand above or below the molecule they belong to. Activity calls are given as the source filed them. The calls are words filed in the database; no cut-off is given here.

Legend:
[1] = tested on: Mus musculus; experiment: Anti-fibrotic activity in bleomycin-induced pulmonary fibrosis C57BL/6 mouse model assessed as decrease in myofibroblast by measuring alpha-SMA level at 60 mg/kg, po pretreated with bleomycin for 5 days and followed by compound administration for 15 days; assay type: functional, organism-based; details: time 15.0 day
[2] = tested on: Mus musculus; experiment: Anti-fibrotic activity in bleomycin-induced pulmonary fibrosis C57BL/6 mouse model assessed as appearance of red collagen deposits in lung at 60 mg/kg, po pretreated with bleomycin for 5 days and followed by compound administration for 15 days by H and E staining based analysis; assay type: functional, organism-based; details: time 15.0 day
[3] = tested on: Mus musculus; experiment: Anti-fibrotic activity in bleomycin-induced pulmonary fibrosis C57BL/6 mouse model assessed as decrease in lung index at 60 mg/kg, po pretreated with bleomycin for 5 days and followed by compound administration for 15 days; assay type: functional, organism-based; details: time 15.0 day
[4] = tested on: Mus musculus; experiment: Anti-fibrotic activity in bleomycin-induced pulmonary fibrosis C57BL/6 mouse model assessed as decrease in hydroxyproline level in lung at 60 mg/kg, po pretreated with bleomycin from day 1 and followed by compound administration for 15 days; assay type: functional, organism-based; details: time 15.0 day
[5] = tested on: Mus musculus; experiment: Anti-fibrotic activity in bleomycin-induced pulmonary fibrosis C57BL/6 mouse model assessed as decrease in hydroxyproline level in lung at 60 mg/kg, po pretreated with bleomycin for 5 days and followed by compound administration for 15 days; assay type: functional, organism-based; details: time 15.0 day
[6] = tested on: Mus musculus; experiment: Anti-fibrotic activity in bleomycin-induced pulmonary fibrosis C57BL/6 mouse model assessed as increase in body weight at 60 mg/kg, po pretreated with bleomycin for 5 days and followed by compound administration for 14 days; assay type: functional, organism-based; details: time 14.0 day
[7] = tested on: HLF; experiment: Inhibition of TGF-betal induced alpha-SMA production in human HLF at 5 to 20 nM incubated for 2 hrs by DAPI staining based laser scanning confocal microscopic analysis; assay type: functional, cell-based; details: dose 5-20 nM
[8] = MRT (0 to t) in Kunming mouse at 1 mg/kg, iv measured upto 48 hrs by LC/MS analysis; assay type: ADME, organism-based; details: in vivo
[9] = tested on: Mus musculus; experiment: Anti-fibrotic activity in bleomycin-induced pulmonary fibrosis C57BL/6 mouse model assessed as appearance of red collagen deposits in lung at 0.33 mg/kg, ip pretreated with bleomycin for 5 days and followed by compound administration for 15 days by H and E staining based analysis; assay type: functional, organism-based; details: time 15.0 day
[10] = Stability in mouse plasma assessed as half life measured upto 24 hrs by HPLC analysis; assay type: ADME, cell-free
[11] = Stability in human plasma assessed as half life measured upto 24 hrs by HPLC analysis; assay type: ADME, cell-free
[12] = tested on: Mus musculus; experiment: Anti-fibrotic activity in bleomycin-induced pulmonary fibrosis C57BL/6 mouse model assessed as decrease in myofibroblast by measuring alpha-SMA level at 0.33 to 0.66 mg/kg, ip pretreated with bleomycin for 5 days and followed by compound administration for 15 days; assay type: functional, organism-based; details: dose 0.33-0.66 mg/kg, time 15.0 day
[13] = tested on: Mus musculus; experiment: Anti-fibrotic activity in bleomycin-induced pulmonary fibrosis C57BL/6 mouse model assessed as downregulation of sEphrin-B2 level in BALF at 0.33 to 0.66 mg/kg, ip pretreated with bleomycin for 5 days and followed by compound administration for 15 days by ELISA analysis; assay type: functional, organism-based; details: dose 0.33-0.66 mg/kg, time 15.0 day
[14] = tested on: Mus musculus; experiment: Anti-fibrotic activity in bleomycin-induced pulmonary fibrosis C57BL/6 mouse model assessed as downregulation of ADAM 10 level in BALF at 0.66 mg/kg, ip pretreated with bleomycin for 5 days and followed by compound administration for 15 days by ELISA analysis; assay type: functional, organism-based; details: time 15.0 day
[15] = tested on: Mus musculus; experiment: Anti-fibrotic activity in bleomycin-induced pulmonary fibrosis C57BL/6 mouse model assessed as decrease in hydroxyproline level in lung at 0.33 to 0.66 mg/kg, ip pretreated with bleomycin from day 1 and followed by compound administration for 15 days; assay type: functional, organism-based; details: dose 0.33-0.66 mg/kg, time 15.0 day
[16] = tested on: Mus musculus; experiment: Anti-fibrotic activity in bleomycin-induced pulmonary fibrosis C57BL/6 mouse model assessed as decrease in lung index at 0.33 mg/kg, ip pretreated with bleomycin for 5 days and followed by compound administration for 15 days; assay type: functional, organism-based; details: time 15.0 day
[17] = Toxicity in C57BL/6 mouse assessed as change in creatinine level at 0.33 mg/kg, ip measured after 15 days; assay type: organism-based; details: in vivo, 360 h, time 15 day
[18] = Toxicity in C57BL/6 mouse assessed as change in ALT level at 0.33 mg/kg, ip measured after 15 days; assay type: organism-based; details: in vivo, 360 h, time 15 day
[19] = (§1) Prodrug conversion of the compound in phosphate buffer saline at pH 6.5 assessed as (6aS,7aS,8R,8aR,9aS,9bS,10aS,10bS)-8-hydroxy-8a-isopropyl-10b-methyl-2,5,5b,6,6a,8,8a,9a,9b,10b-decahydrotris(oxireno)[2',3':4b,5;2'',3'':6,7;2''',3''':8a,9]phenanthro[1,2-c]furan-3(1H)-one formation by measuring half life; assay type: ADME
[20] = tested on: Mus musculus; experiment: Anti-fibrotic activity in bleomycin-induced pulmonary fibrosis C57BL/6 mouse model assessed as decrease in TGF-beta1 level in BALF at 0.66 mg/kg, ip pretreated with bleomycin from day 1 and followed by compound administration for 15 days by ELISA analysis; assay type: functional, organism-based; details: time 15.0 day
[21] = Solubility of compound in water by HPLC analysis; assay type: physicochemical
[22] = tested on: Mus musculus; experiment: Anti-fibrotic activity in bleomycin-induced pulmonary fibrosis C57BL/6 mouse model assessed as decrease in hydroxyproline level in lung at 0.33 to 0.66 mg/kg, ip pretreated with bleomycin for 5 days and followed by compound administration for 15 days; assay type: functional, organism-based; details: dose 0.33-0.66 mg/kg, time 15.0 day
[23] = tested on: Mus musculus; experiment: Anti-fibrotic activity in bleomycin-induced pulmonary fibrosis C57BL/6 mouse model at 0.66 mg/kg, ip pretreated with bleomycin for 5 days and followed by compound administration for 15 days; assay type: functional, organism-based; details: time 15.0 day
[24] = tested on: Mus musculus; experiment: Anti-fibrotic activity in bleomycin-induced pulmonary fibrosis C57BL/6 mouse model assessed as attenuation of collagen accumulation in lung at 0.33 mg/kg, ip pretreated with bleomycin for 5 days and followed by compound administration for 15 days by Masson staining based analysis; assay type: functional, organism-based; details: time 15.0 day
[25] = MRT(0 to infinity) in Kunming mouse at 1 mg/kg, iv measured upto 48 hrs by LC/MS analysis; assay type: ADME, organism-based; details: in vivo
[26] = Toxicity in C57BL/6 mouse assessed as change in BUN level at 0.33 mg/kg, ip measured after 15 days; assay type: organism-based; details: in vivo, 360 h, time 15 day
[27] = AUC (0 to infinity) in Kunming mouse at 1 mg/kg, iv measured upto 48 hrs by LC/MS analysis; assay type: ADME, organism-based; details: in vivo
[28] = tested on: HLF; experiment: Upregulation of ADAM 10 expression in TGF-beta1-induced human HLF at 5 to 20 nM; assay type: functional, cell-based; details: dose 5-20 nM
[29] = tested on: Mus musculus; experiment: Anti-fibrotic activity in bleomycin-induced pulmonary fibrosis C57BL/6 mouse model assessed as increase in body weight at 0.33 mg/kg, ip pretreated with bleomycin for 5 days and followed by compound administration for 14 days; assay type: functional, organism-based; details: time 14.0 day
[30] = Volume of distribution in Kunming mouse at 1 mg/kg, iv measured upto 48 hrs by LC/MS analysis; assay type: ADME, organism-based; details: in vivo
[31] = Half life in Kunming mouse at 1 mg/kg, iv measured upto 48 hrs by LC/MS analysis; assay type: ADME, organism-based; details: in vivo
[32] = Toxicity in C57BL/6 mouse assessed as pathological changes in kidney at 0.33 mg/kg, ip measured after 15 days; assay type: organism-based; details: in vivo, 360 h, time 15 day
[33] = tested on: HLF; experiment: Inhibition of sEphrin-B2 expression level in human HLF at 20 nM; assay type: functional, cell-based
[34] = Clearance in Kunming mouse at 1 mg/kg, iv measured upto 48 hrs by LC/MS analysis; assay type: ADME, organism-based; details: in vivo
[35] = tested on: Mus musculus; experiment: Anti-fibrotic activity in bleomycin-induced pulmonary fibrosis C57BL/6 mouse model assessed as infiltrated interstitial matrix in lung at 60 mg/kg, po pretreated with bleomycin for 5 days and followed by compound administration for 15 days by H and E staining based analysis; assay type: functional, organism-based; details: time 15.0 day
[36] = tested on: Mus musculus; experiment: Anti-fibrotic activity in bleomycin-induced pulmonary fibrosis C57BL/6 mouse model assessed as decrease in TGF-beta1 level in BALF at 0.66 mg/kg, ip pretreated with bleomycin for 5 days and followed by compound administration for 15 days by ELISA analysis; assay type: functional, organism-based; details: time 15.0 day
[37] = Cytotoxicity in human HLF upto 0.625 uM; assay type: toxicity, cell-based
[38] = Toxicity in C57BL/6 mouse assessed as change in AST level at 0.33 mg/kg, ip measured after 15 days; assay type: organism-based; details: in vivo, 360 h, time 15 day
[39] = tested on: Mus musculus; experiment: Anti-fibrotic activity in bleomycin-induced pulmonary fibrosis C57BL/6 mouse model assessed as infiltrated interstitial matrix in lung at 0.33 mg/kg, ip pretreated with bleomycin for 5 days and followed by compound administration for 15 days by H and E staining based analysis; assay type: functional, organism-based; details: time 15.0 day
[40] = Toxicity in C57BL/6 mouse assessed as pathological changes in liver at 0.33 mg/kg, ip measured after 15 days; assay type: organism-based; details: in vivo, 360 h, time 15 day
[41] = Stability of compound in PBS buffer at pH 7.4 assessed as half life; assay type: physicochemical
[42] = as §1, with “8” for “6.5”; assay type: ADME
[43] = as §1, with “7.4” for “6.5”; assay type: ADME

Structure (SMILES): COC(=O)c1ccc2c(c1)NC(=O)/C2=C(\Nc1ccc(N(C)C(=O)CN2CCN(C)CC2)cc1)c1ccccc1
- Activity [1]: Active
- Activity [2]: Active
- Activity [3]: Active
- Activity [4]: Active
- Activity [5]: Active
- Activity [6]: Active

Structure (SMILES): CC(C)[C@]12O[C@H]1[C@@H]1O[C@]13[C@]1(O[C@H]1C[C@H]1C4=C(CC[C@@]13C)C(=O)OC4)[C@@H]2OC(=O)NC1CCCCC1N (some centres not stated)
- half-life [10]: 1.62 h
- half-life [11]: 1.69 h
- solubility [21]: 6.96 mg/mL (≈ 13.9 mM)
- half-life [41]: 1.85 h

Structure (SMILES): CC(C)[C@]12O[C@H]1[C@@H]1O[C@]13[C@]1(O[C@H]1C[C@H]1C4=C(CC[C@@]13C)C(=O)OC4)[C@@H]2OCOP(=O)([O-])[O-].[Na+].[Na+] [MINNELIDE]
- solubility [21]: 93.3 mg/mL

Structure (SMILES): CC(C)[C@]12O[C@H]1[C@@H]1O[C@]13[C@]1(O[C@H]1C[C@H]1C4=C(CC[C@@]13C)C(=O)OC4)[C@@H]2OC(=O)CCC(=O)[O-].[Na+] [OMTRIPTOLIDE SODIUM]
- solubility [21]: 1.39 mg/mL

Now from value to molecule, other results behind:

- MRT last at 48 h [8]: 11.5 h
- half-life [10]: 17 h
- half-life [11]: 16.4 h
- t1/2 [19]: 81.7 h
- solubility [21]: 30.8 mg/mL (≈ 64.9 mM)
- MRT inf [25]: 14.8 h
- AUC(0-inf) [27]: 1100 ng·h/mL
- Vd [30]: 0.119 L/kg
- t1/2 [31]: 7.72 h
- CL [34]: 15.2 mL/min/kg
- half-life [41]: 17.7 h
- t1/2 [42]: 4.52 h
- t1/2 [43]: 17.7 h
Structure (SMILES): CNCCN(C)C(=O)O[C@@H]1[C@@]2(C(C)C)O[C@H]2[C@@H]2O[C@]23[C@]12O[C@H]2C[C@H]1C2=C(CC[C@@]13C)C(=O)OC2
- inhibition [7]: Active
- Activity [9]: Active
- Activity [12]: Active
- Activity [13]: Active
- Activity [14]: Active
- Activity [15]: Active
- Activity [16]: Active
- Activity [17]: Non-Toxic
- Activity [18]: Non-Toxic
- Activity [20]: Active
- Activity [22]: Active
- Activity [23]: Active
- Activity [24]: Active
- Activity [26]: Non-Toxic
- Activity [28]: Active
- Activity [29]: Active
- Activity [32]: Non-Toxic
- inhibition [33]: Active
- Activity [35]: Active
- Activity [36]: Active
- Activity [37]: Non-Toxic
- Activity [38]: Non-Toxic
- Activity [39]: Active
- Activity [40]: Non-Toxic

- half-life [10]: 1.79 h
- half-life [11]: 1.45 h
- solubility [21]: 8.99 mg/mL (≈ 18.5 mM)
- half-life [41]: 2.46 h
Structure (SMILES): CC(C)[C@]12O[C@H]1[C@@H]1O[C@]13[C@]1(O[C@H]1C[C@H]1C4=C(CC[C@@]13C)C(=O)OC4)[C@@H]2OC(=O)NCC1CCCN1 (some centres not stated)

- half-life [10]: 27.3 h
- half-life [11]: 24.5 h
- solubility [21]: 12.5 mg/mL (≈ 28 mM)
- half-life [41]: 25.2 h
Structure (SMILES): CC(C)[C@]12O[C@H]1[C@@H]1O[C@]13[C@]1(O[C@H]1C[C@H]1C4=C(CC[C@@]13C)C(=O)OC4)[C@@H]2OC(=O)NCCN
